This note sets out measurements from article PMC10480232 (Scientific Reports, 2023).

Residues, ends and D or L forms follow the SMILES beside them. No end group written: not given here.

The subject of one data set is SARS-CoV-2. The conditions noted are these: 1 h.
Data set [1] concerns SARS-CoV-2 (nCoV/USA_WA1/2020).

In the case of `CC[C@H](C)[C@H](NC(=O)CNC(=O)[C@@H](NC(=O)[C@H](CCCCN)NC(=O)[C@@H](NC(=O)[C@H](CCCCN)NC(=O)[C@H](CCCCN)NC(=O)[C@H](Cc1ccccc1)NC(=O)[C@H](Cc1ccccc1)NC(=O)[C@H](CC(N)=O)NC(=O)[C@H](CCCCN)NC(=O)[C@H](Cc1ccccc1)NC(=O)[C@H](CCCNC(=N)N)NC(=O)[C@@H](N)CCCCN)[C@@H](C)CC)[C@@H](C)O)C(=O)N[C@@H](CCCCN)C(=O)N[C@@H](CCCCN)C(=O)N[C@H](C(=O)N[C@H](C(=O)N[C@@H](CCCCN)C(=O)N[C@@H](CCCCN)C(=O)N[C@H](C(=O)N[C@@H](CCCCN)C(=O)N[C@@H](CCC(=O)O)C(=O)O)[C@@H](C)O)[C@@H](C)CC)C(C)C` [NS] (H-KRFKNFFKKIKTGIKKVIKKTKE-OH; N-terminus and C-terminus assumed), the “SARS-CoV-2 inhibition at 50 µM” value with SARS-CoV-2 is given as above 50%.
As for `CC[C@H](C)[C@H](NC(=O)[C@H](CCCCN)NC(=O)[C@H](CCCCN)NC(=O)[C@@H](N)CC(C)C)C(=O)NCC(=O)N[C@@H](CCCCN)C(=O)N[C@H](C(=O)N[C@@H](CC(C)C)C(=O)N[C@@H](CCCCN)C(=O)N[C@@H](Cc1c[nH]c2ccccc12)C(=O)N[C@H](C(=O)N1CCC[C@H]1C(=O)N1CCC[C@H]1C(=O)N[C@H](C(=O)N[C@H](C(=O)NCC(=O)N[C@@H](CO)C(=O)N[C@H](C(=O)N1CCC[C@H]1C(=O)N[C@@H](CC(C)C)C(=O)NCC(=O)N[C@@H](CS)C(=O)NCC(=O)O)[C@@H](C)CC)C(C)C)[C@@H](C)CC)[C@@H](C)CC)C(C)C` [p14N] (H-LKKIGKVLKWIPPIVGSIPLGCG-OH), the “anti-SARS-CoV-2 activity relative to PMAP-36R (in words)” value in data set [1] is reported as “no inhibition”.
Turning to `CC[C@H](C)[C@H](NC(=O)[C@H](CCCNC(=N)N)NC(=O)[C@@H]1CCCN1C(=O)[C@@H](NC(=O)[C@@H]1CCCN1C(=O)[C@H](Cc1ccccc1)NC(=O)[C@H](CO)NC(=O)[C@@H]1CCCN1C(=O)[C@@H]1CCCN1C(=O)[C@H](Cc1ccccc1)NC(=O)[C@H](Cc1c[nH]c2ccccc12)NC(=O)[C@@H]1CCCN1C(=O)[C@@H]1CCCN1C(=O)[C@@H]1CCCN1C(=O)[C@H](Cc1c[nH]c2ccccc12)NC(=O)[C@H](CCC(N)=O)NC(=O)[C@H](Cc1c[nH]c2ccccc12)NC(=O)[C@H](CCCNC(=N)N)NC(=O)[C@H](CC(C)C)NC(=O)[C@@H]1CCCN1C(=O)[C@@H](NC(=O)[C@@H]1CCCN1C(=O)[C@H](Cc1c[nH]c2ccccc12)NC(=O)[C@H](Cc1ccccc1)NC(=O)[C@@H]1CCCN1C(=O)[C@@H](NC(=O)[C@H](CCCNC(=N)N)NC(=O)[C@@H](N)CCCNC(=N)N)[C@@H](C)CC)[C@@H](C)CC)[C@@H](C)CC)C(=O)N[C@@H](CO)C(=O)N[C@@H](CCCNC(=N)N)C(=O)N[C@@H](CCCCN)C(=O)N[C@@H](CCCNC(=N)N)C(=O)O` [Beluga 1] (H-RRIPFWPIPLRWQWPPPWFPPSFPIPRISRKR-OH; N-terminus and C-terminus assumed), the “SARS-CoV-2 inhibition at 50 µM” value in the data set with SARS-CoV-2 was above 50%.
For the compound “IKNVELNIENLGERIKNAKKKVWEKIKSFGRRIKDFFRKPSPEVEP [Bat Cathelicidin 4]”, the “SARS-CoV-2 inhibition at 50 µM” value in the data set with SARS-CoV-2 was above 50%.
Still for that read-out and setting: the figure for `CC[C@H](C)[C@H](NC(=O)[C@H](CO)NC(=O)[C@H](CCCCN)NC(=O)[C@H](CCCNC(=N)N)NC(=O)[C@H](CC(C)C)NC(=O)[C@H](CCCCN)NC(=O)[C@H](CCCCN)NC(=O)[C@@H](NC(=O)[C@H](CCCNC(=N)N)NC(=O)[C@H](CCCCN)NC(=O)[C@@H](N)CCCNC(=N)N)[C@@H](C)CC)C(=O)N[C@@H](CCCCN)C(=O)N[C@@H](CCCCN)C(=O)N[C@@H](CCCNC(=N)N)C(=O)N[C@@H](CC(C)C)C(=O)N[C@@H](CCCCN)C(=O)N[C@@H](CCCCN)C(=O)N[C@@H](CC(C)C)C(=O)N1CCC[C@H]1C(=O)N[C@@H](Cc1ccccc1)C(=O)N[C@@H](CCC(=O)O)C(=O)N[C@H](C(=O)N1CCC[C@H]1C(=O)N[C@@H](CC(C)C)C(=O)N[C@H](C(=O)N[C@@H](Cc1ccccc1)C(=O)N[C@@H](CO)C(=O)N[C@H](C(=O)N1CCC[C@H]1C(=O)N[C@@H](Cc1ccccc1)C(=O)O)[C@@H](C)CC)C(C)C)C(C)C` [PC1a] (H-RKRIKKLRKSIKKRLKKLPFEVPLVFSIPF-OH; N-terminus and C-terminus assumed) is above 50%.
In the case of `CC[C@H](C)[C@H](NC(=O)[C@H](CCCCN)NC(=O)[C@H](CCCCN)NC(=O)[C@H](CC(C)C)NC(=O)[C@H](CCCNC(=N)N)NC(=O)[C@H](CCCCN)NC(=O)[C@H](CCCNC(=N)N)NC(=O)[C@@H](NC(=O)[C@H](CCCCN)NC(=O)[C@H](CCCCN)NC(=O)[C@H](CCCNC(=N)N)NC(=O)[C@H](CC(C)C)NC(=O)[C@H](CCCNC(=N)N)NC(=O)[C@H](CCCNC(=N)N)NC(=O)[C@H](Cc1ccccc1)NC(=O)[C@H](CCCNC(=N)N)NC(=O)CNC(=O)[C@@H](N)C(C)C)[C@@H](C)O)C(=O)NCC(=O)N[C@@H](CCCCN)C(=O)N[C@H](C(=O)N[C@@H](CC(C)C)C(=O)N[C@@H](CCCCN)C(=O)N[C@@H](Cc1c[nH]c2ccccc12)C(=O)N[C@H](C(=O)N1CCC[C@H]1C(=O)N1CCC[C@H]1C(=O)N[C@H](C(=O)N[C@H](C(=O)NCC(=O)N[C@@H](CO)C(=O)N[C@H](C(=O)N1CCC[C@H]1C(=O)N[C@@H](CC(C)C)C(=O)NCC(=O)N[C@@H](CS)C(=O)NCC(=O)O)[C@@H](C)CC)C(C)C)[C@@H](C)CC)[C@@H](C)CC)C(C)C` [PMAP-36R] (H-VGRFRRLRKKTRKRLKKIGKVLKWIPPIVGSIPLGCG-OH), the “hemolytic activity (in words)” value in the data set with human red blood cells is recorded as “considerable hemolytic activity”. The “SARS-CoV-2 inhibition at 50 µM” value with SARS-CoV-2 was above 50%. In addition, the “HEK293T TD50” value in the data set on HEK293T cells came out at 24.61 µM. Also, the “Vero TD50 48 h” value in the data set with Vero hACE2 cells came to 23.47 µM.
Consider `CC[C@H](C)[C@H](NC(=O)[C@@H]1CCCN1C(=O)[C@@H]1CCCN1C(=O)[C@@H](NC(=O)[C@H](Cc1c[nH]c2ccccc12)NC(=O)[C@H](CCCCN)NC(=O)[C@H](CC(C)C)NC(=O)[C@@H](NC(=O)[C@H](CCCCN)NC(=O)CNC(=O)[C@@H](NC(=O)[C@H](CCCCN)NC(=O)[C@H](CCCCN)NC(=O)[C@H](CC(C)C)NC(=O)[C@H](CCCNC(=N)N)NC(=O)[C@H](CCCCN)NC(=O)[C@H](CCCNC(=N)N)NC(=O)[C@@H](NC(=O)[C@H](CCCCN)NC(=O)[C@H](CCCCN)NC(=O)[C@H](CCCNC(=N)N)NC(=O)[C@H](CC(C)C)NC(=O)[C@H](CCCNC(=N)N)NC(=O)[C@H](CCCNC(=N)N)NC(=O)[C@H](Cc1ccccc1)NC(=O)[C@H](CCCNC(=N)N)NC(=O)CNC(=O)[C@@H](N)C(C)C)[C@@H](C)O)[C@@H](C)CC)C(C)C)[C@@H](C)CC)C(=O)O` [p9C] (H-VGRFRRLRKKTRKRLKKIGKVLKWIPPI-OH), for which the “anti-SARS-CoV-2 activity relative to PMAP-36R (in words)” value in data set [1] was “none”.
With “RTKRFRKLGNLLQKGGQKIGQKIERIGQKIKDFFSNLVPRQEGA [Pangolin 1]”, the “SARS-CoV-2 inhibition at 50 µM” value with SARS-CoV-2 is above 50%.
For `CC[C@H](C)[C@H](NC(=O)[C@H](CCCCN)NC(=O)[C@H](CCCCN)NC(=O)[C@H](Cc1ccccc1)NC(=O)[C@H](Cc1ccccc1)NC(=O)[C@H](CCCCN)NC(=O)[C@H](CCCCN)NC(=O)[C@H](Cc1ccccc1)NC(=O)[C@H](CCCNC(=N)N)NC(=O)[C@@H](N)CCCCN)C(=O)N[C@@H](CCCCN)C(=O)N[C@@H](CCCCN)C(=O)N[C@@H](CO)C(=O)N[C@H](C(=O)N[C@@H](CCCCN)C(=O)N[C@@H](CCCCN)C(=O)N[C@@H](CCCNC(=N)N)C(=O)N[C@H](C(=O)N[C@@H](CCCCN)C(=O)N[C@@H](CCCCN)C(=O)N[C@@H](CC(C)C)C(=O)N[C@@H](Cc1ccccc1)C(=O)N[C@@H](CCCCN)C(=O)N[C@@H](CCCCN)C(=O)N1CCC[C@H]1C(=O)N[C@@H](CCCNC(=N)N)C(=O)N[C@H](C(=O)N[C@H](C(=O)N1CCC[C@H]1C(=O)N[C@H](C(=O)N[C@@H](CO)C(=O)N[C@H](C(=O)N1CCC[C@H]1C(=O)N[C@@H](Cc1ccccc1)C(=O)O)[C@@H](C)CC)[C@@H](C)CC)[C@@H](C)CC)C(C)C)C(C)C)C(C)C` [TS] (H-KRFKKFFKKIKKSVKKRVKKLFKKPRVIPISIPF-OH; N-terminus and C-terminus assumed), the “SARS-CoV-2 inhibition at 50 µM” value with SARS-CoV-2 is given as above 50%.
Turning to `CC[C@H](C)[C@H](NC(=O)[C@H](CCCNC(=N)N)NC(=O)[C@H](CCC(=O)O)NC(=O)CN)C(=O)N[C@@H](CCCCN)C(=O)N[C@@H](CC(N)=O)C(=O)N[C@@H](C)C(=O)N[C@@H](CCCCN)C(=O)N[C@@H](CCCCN)C(=O)N[C@@H](CCCCN)C(=O)N[C@H](C(=O)N[C@@H](Cc1c[nH]c2ccccc12)C(=O)N[C@@H](CCC(=O)O)C(=O)N[C@@H](CCCCN)C(=O)N[C@H](C(=O)N[C@@H](CCCCN)C(=O)N[C@@H](CO)C(=O)N[C@@H](Cc1ccccc1)C(=O)NCC(=O)N[C@@H](CCCNC(=N)N)C(=O)N[C@@H](CCCNC(=N)N)C(=O)N[C@H](C(=O)N[C@@H](CCCCN)C(=O)N[C@@H](CC(=O)O)C(=O)N[C@@H](Cc1ccccc1)C(=O)N[C@@H](Cc1ccccc1)C(=O)N[C@@H](CCCNC(=N)N)C(=O)N[C@@H](CCCCN)C(=O)N1CCC[C@H]1C(=O)N[C@@H](CO)C(=O)N1CCC[C@H]1C(=O)N[C@@H](CCC(=O)O)C(=O)N[C@H](C(=O)N[C@@H](CCC(=O)O)C(=O)N1CCC[C@H]1C(=O)O)C(C)C)[C@@H](C)CC)[C@@H](C)CC)C(C)C` [Bat Cathelicidin 4c] (H-GERIKNAKKKVWEKIKSFGRRIKDFFRKPSPEVEP-OH; N-terminus and C-terminus assumed), the “SARS-CoV-2 inhibition at 50 µM” value with SARS-CoV-2 is above 50%.
For `CC[C@H](C)[C@H](NC(=O)[C@H](CO)NC(=O)CNC(=O)[C@@H](NC(=O)[C@@H](NC(=O)[C@@H]1CCCN1C(=O)[C@@H]1CCCN1C(=O)[C@@H](NC(=O)[C@H](Cc1c[nH]c2ccccc12)NC(=O)[C@H](CCCCN)NC(=O)[C@H](CC(C)C)NC(=O)[C@@H](NC(=O)[C@H](CCCCN)NC(=O)CNC(=O)[C@@H](NC(=O)[C@H](CCCCN)NC(=O)[C@H](CCCCN)NC(=O)[C@H](CC(C)C)NC(=O)[C@H](CCCNC(=N)N)NC(=O)[C@H](CCCCN)NC(=O)[C@H](CCCNC(=N)N)NC(=O)[C@@H](NC(=O)[C@H](CCCCN)NC(=O)[C@H](CCCCN)NC(=O)[C@H](CCCNC(=N)N)NC(=O)[C@H](CC(C)C)NC(=O)[C@H](CCCNC(=N)N)NC(=O)[C@H](CCCNC(=N)N)NC(=O)[C@H](Cc1ccccc1)NC(=O)[C@H](CCCNC(=N)N)NC(=O)CNC(=O)[C@@H](N)C(C)C)[C@@H](C)O)[C@@H](C)CC)C(C)C)[C@@H](C)CC)[C@@H](C)CC)C(C)C)C(=O)O` [p5C] (H-VGRFRRLRKKTRKRLKKIGKVLKWIPPIVGSI-OH), the “anti-SARS-CoV-2 activity relative to PMAP-36R (in words)” value in data set [1] is “little inhibitory activity”.
